Holding throughout (experiment): relative viability (nuclei count vs DMSO), 5 days (fraction); higher = more cells survive
Compound in the assay “Selisistat + Tozasertib”: C1CC(C2=C(C1)C3=C(N2)C=CC(=C3)Cl)C(=O)N [Selisistat] + Cc1cc(Nc2cc(N3CCN(C)CC3)nc(Sc3ccc(NC(=O)C4CC4)cc3)n2)n[nH]1 [Tozasertib] (partner 0.1 µM)
The method in brief: (§1)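 Lung cancer cell lines in 1536-well plates got either a single drug or a fixed anchor-drug dose together with five library-drug doses (not always all listed) in √10 steps, by pin tool, on the day after seeding. Nuclei were counted after 5 days, and relative viability is the treated-to-vehicle ratio of nuclei counts. Values are medians of duplicate plates.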

Compound in the assay “Serdemetan + Bortezomib”: c1ccc2c(CCNc3ccc(Nc4ccncc4)cc3)c[nH]c2c1 [Serdemetan] + CC(C)C[C@H](NC(=O)[C@H](Cc1ccccc1)NC(=O)c1cnccn1)B(O)O [Bortezomib] (partner 0.002 µM)
Summed up:
as §1

Compound in the assay “Serdemetan + Foretinib”: c1ccc2c(CCNc3ccc(Nc4ccncc4)cc3)c[nH]c2c1 [Serdemetan] + COc1cc2c(Oc3ccc(NC(=O)C4(C(=O)Nc5ccc(F)cc5)CC4)cc3F)ccnc2cc1OCCCN1CCOCC1 [Foretinib] (partner 0.25 µM)
The method in brief:
as §1

Compound in the assay “Serdemetan + Linsitinib”: c1ccc2c(CCNc3ccc(Nc4ccncc4)cc3)c[nH]c2c1 [Serdemetan] + C[C@]1(O)C[C@@H](c2nc(-c3ccc4ccc(-c5ccccc5)nc4c3)c3c(N)nccn32)C1 [Linsitinib] (partner 1 µM)
Summed up: as §1

For the cell line H3255, the relative viability turned out to be 0.624 in the assay with Selisistat + Tozasertib (first compound 0.4 µM); 0.772 with Selisistat + Tozasertib (first compound 1.265 µM); 0.589 with Selisistat + Tozasertib (first compound 4 µM); 0.657 in the assay with Selisistat + Tozasertib (first compound 12.65 µM); 0.717 with Selisistat + Tozasertib (first compound 40 µM); 0.827 in the assay with Serdemetan + Bortezomib (first compound 0.04 µM). For the same cell line, the relative viability was 0.68 in the assay with Serdemetan + Bortezomib (first compound 0.1265 µM); 0.886 with Serdemetan + Bortezomib (first compound 0.4 µM); 0.746 with Serdemetan + Bortezomib (first compound 1.265 µM); 0.7 with Serdemetan + Bortezomib (first compound 4 µM); 1.02 in the assay with Serdemetan + Foretinib (first compound 0.04 µM); 0.845 with Serdemetan + Foretinib (first compound 0.1265 µM). The relative viability in the assay with Serdemetan + Foretinib (first compound 0.4 µM) turned out to be 0.833; with Serdemetan + Foretinib (first compound 1.265 µM) it was 0.727; with Serdemetan + Foretinib (first compound 4 µM), 0.708; in the assay with Serdemetan + Linsitinib (first compound 0.04 µM), 0.938; with Serdemetan + Linsitinib (first compound 0.1265 µM) it was 0.832; with Serdemetan + Linsitinib (first compound 0.4 µM) it was 0.931. Also, the relative viability with Serdemetan + Linsitinib (first compound 1.265 µM) came out at 1.03; in the assay with Serdemetan + Linsitinib (first compound 4 µM) it was 0.814.
As to HARA, the relative viability in the assay with Selisistat + Tozasertib (first compound 0.4 µM) came to 0.137; with Selisistat + Tozasertib (first compound 1.265 µM), 0.12; with Selisistat + Tozasertib (first compound 4 µM) it was 0.119; in the assay with Selisistat + Tozasertib (first compound 12.65 µM), 0.154; with Selisistat + Tozasertib (first compound 40 µM), 0.1; in the assay with Serdemetan + Bortezomib (first compound 0.04 µM), 1.09. Besides, the relative viability in the assay with Serdemetan + Bortezomib (first compound 0.1265 µM) amounted to 1.1; with Serdemetan + Bortezomib (first compound 0.4 µM), 1.15; in the assay with Serdemetan + Bortezomib (first compound 4 µM), 1.08; with Serdemetan + Foretinib (first compound 0.04 µM), 0.84; with Serdemetan + Foretinib (first compound 0.1265 µM), 0.903; with Serdemetan + Foretinib (first compound 0.4 µM) it was 0.871. The relative viability was found to be 0.585 with Serdemetan + Foretinib (first compound 1.265 µM); 0.452 with Serdemetan + Foretinib (first compound 4 µM); 0.948 with Serdemetan + Linsitinib (first compound 0.04 µM); 0.865 in the assay with Serdemetan + Linsitinib (first compound 0.1265 µM); 0.854 in the assay with Serdemetan + Linsitinib (first compound 0.4 µM); 0.441 with Serdemetan + Linsitinib (first compound 4 µM).
In the case of HCC-15, the relative viability was found to be 0.407 with Selisistat + Tozasertib (first compound 0.4 µM); 0.375 with Selisistat + Tozasertib (first compound 1.265 µM); 0.311 with Selisistat + Tozasertib (first compound 12.65 µM); 0.252 with Selisistat + Tozasertib (first compound 40 µM); 1 with Serdemetan + Bortezomib (first compound 0.04 µM); 1.01 in the assay with Serdemetan + Bortezomib (first compound 0.1265 µM). Further, the relative viability with Serdemetan + Bortezomib (first compound 0.4 µM) turned out to be 1.01; with Serdemetan + Bortezomib (first compound 1.265 µM) it was 0.954; in the assay with Serdemetan + Bortezomib (first compound 4 µM), 0.855; with Serdemetan + Foretinib (first compound 0.04 µM), 1; with Serdemetan + Foretinib (first compound 0.1265 µM) it was 0.993; with Serdemetan + Foretinib (first compound 0.4 µM), 0.944. The relative viability with Serdemetan + Foretinib (first compound 1.265 µM) was 0.854; with Serdemetan + Foretinib (first compound 4 µM), 0.707; with Serdemetan + Linsitinib (first compound 0.04 µM), 0.861; with Serdemetan + Linsitinib (first compound 0.1265 µM) it was 0.893; with Serdemetan + Linsitinib (first compound 0.4 µM), 0.797; in the assay with Serdemetan + Linsitinib (first compound 1.265 µM), 0.647. In the assay with Serdemetan + Linsitinib (first compound 4 µM), the relative viability was 0.62.
For HCC-44, the relative viability stood at 0.968 with Selisistat + Tozasertib (first compound 0.4 µM); 0.848 in the assay with Selisistat + Tozasertib (first compound 12.65 µM); 0.931 with Selisistat + Tozasertib (first compound 40 µM); 0.854 in the assay with Serdemetan + Bortezomib (first compound 0.04 µM); 0.849 with Serdemetan + Bortezomib (first compound 0.1265 µM); 0.827 with Serdemetan + Bortezomib (first compound 0.4 µM). Besides, the relative viability was 0.621 with Serdemetan + Bortezomib (first compound 1.265 µM); 0.85 with Serdemetan + Bortezomib (first compound 4 µM); 0.637 with Serdemetan + Linsitinib (first compound 0.04 µM); 0.634 in the assay with Serdemetan + Linsitinib (first compound 0.1265 µM); 0.598 in the assay with Serdemetan + Linsitinib (first compound 0.4 µM); 0.426 with Serdemetan + Linsitinib (first compound 1.265 µM). For the same cell line, the relative viability with Serdemetan + Linsitinib (first compound 4 µM) is 0.424.

The values above are taken from the supplement of paper PMC10307832.
